From patent US20250026761A1, “DIAZABICYCLOOCTANE DERIVATIVES USEFUL AS MATRIX METALLOPROTEINASE INHIBITORS” (VASA THERAPEUTICS SPÓLKA Z OGRANICZONA ODPOWIEDZIALNOSCIA, priority 2021, published 2025)

How the values were obtained:
Type in all cases: biochemical
[1] = molecular target: T1, MMP9 (Homo sapiens, UniProt P14780); assay: MMP-9 colorimetric inhibition assay (Enzo kit); conditions: colorimetric thiopeptide substrate, absorbance 415 nm; read-out: MMP9 IC50 class
T1 construct: purchased Enzo Life Sciences, Inc. BML-AK410
T1 sequence (P14780 94-707): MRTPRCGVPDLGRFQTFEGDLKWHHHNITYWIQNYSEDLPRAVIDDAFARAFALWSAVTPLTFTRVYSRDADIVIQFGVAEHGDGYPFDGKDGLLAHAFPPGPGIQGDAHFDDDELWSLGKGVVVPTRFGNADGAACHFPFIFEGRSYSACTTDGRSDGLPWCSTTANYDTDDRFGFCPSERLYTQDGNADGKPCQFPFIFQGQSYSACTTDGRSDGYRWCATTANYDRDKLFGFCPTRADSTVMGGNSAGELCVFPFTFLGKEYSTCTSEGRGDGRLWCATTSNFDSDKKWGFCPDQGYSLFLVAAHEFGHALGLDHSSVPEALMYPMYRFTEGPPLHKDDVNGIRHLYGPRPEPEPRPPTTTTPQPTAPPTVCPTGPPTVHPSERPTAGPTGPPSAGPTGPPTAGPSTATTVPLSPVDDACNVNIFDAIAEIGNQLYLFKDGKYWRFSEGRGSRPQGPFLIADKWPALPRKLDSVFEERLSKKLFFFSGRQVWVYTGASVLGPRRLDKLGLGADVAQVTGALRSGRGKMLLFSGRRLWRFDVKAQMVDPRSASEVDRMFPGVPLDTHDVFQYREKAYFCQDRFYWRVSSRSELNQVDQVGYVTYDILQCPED
Procedure: (§1) The inhibitory activities of the compounds of the invention were assessed in 96-well microplate format using MMP1, MMP2, MMP9 and MMP13 colorimetric assay kits and TACE fluorometric assay kit from Enzo Life Sciences, Inc. The inhibitory effect of the compounds of the invention on ADAM10 activity were evaluated in 96-well microplate format using fluorometric assay from AnaSpec, Inc.
(§2) The MMP-9 Colorimetric Drug Discovery Kit (catalog #BML-AK410) is a complete assay system designed to screen inhibitors of matrix metalloproteinase-9 using a thiopeptide as a chromogenic substrate (Ac-PLG-[2-mercapto-4-methylpentanoyl]-LG-OC2H5). The MMP cleavage site peptide bond is replaced by a thioester bond in the thiopeptide. Hydrolysis of this bond by an MMP produces a sulfhydryl group, which reacts with DTNB [5,5′-dithiobis(2-nitrobenzoic acid), Ellman's reagent] to form 2-nitro-5-thiobenzoic acid, that can be detected spectrophotometrically.
(§3) The inhibitory activities of the compounds of the invention against MMP1, MMP2, MMP9 and MMP13 were tested according to the manufacturer's assay protocols and the absorbance at 415 nm was monitored using the Tecan Infinite® 200 Pro F Nano^+ microplate reader.
(§4) The normalized values were analyzed using GraphPadPrism 9 for Windows (GraphPad Software, San Diego, CA, USA) software by plotting inhibition curves and determining the IC50 values.
(§5) The calculated IC50 values were divided into the following classes: • A: <50 nM; B: 50-1000 nM; C: >1000-10,000 nM; D: >10,000 nM

[2] = molecular target: T2, MMP1 (Homo sapiens, UniProt P03956); assay: MMP-1 colorimetric inhibition assay (Enzo kit); conditions: colorimetric thiopeptide substrate, absorbance 415 nm; read-out: MMP1 IC50 class
T2 construct: purchased Enzo Life Sciences, Inc. BML-AK404
T2 sequence (P03956 100-469): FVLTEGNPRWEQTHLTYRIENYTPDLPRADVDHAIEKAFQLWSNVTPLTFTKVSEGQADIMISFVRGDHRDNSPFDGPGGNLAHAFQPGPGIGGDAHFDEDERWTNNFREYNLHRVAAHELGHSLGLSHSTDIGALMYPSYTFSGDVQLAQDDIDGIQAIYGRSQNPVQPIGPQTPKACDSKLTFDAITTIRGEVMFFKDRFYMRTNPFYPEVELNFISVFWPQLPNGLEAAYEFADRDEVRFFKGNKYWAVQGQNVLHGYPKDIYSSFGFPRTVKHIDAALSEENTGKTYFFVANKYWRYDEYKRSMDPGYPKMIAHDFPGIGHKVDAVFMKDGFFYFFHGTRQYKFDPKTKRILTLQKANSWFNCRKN
Procedure: as §1
as §2, with “MMP-1” for “MMP-9”, “#BML-AK404)” for “#BML-AK410)”, “metalloproteinase-1” for “metalloproteinase-9”
as §3, §4, §5

[3] = molecular target: T3, MMP2 (Homo sapiens, UniProt P08253); assay: MMP-2 colorimetric inhibition assay (Enzo kit); conditions: colorimetric thiopeptide substrate, absorbance 415 nm; read-out: MMP2 IC50 class
T3 construct: purchased Enzo Life Sciences, Inc. BML-AK408
T3 sequence (P08253 110-452 limits assumed): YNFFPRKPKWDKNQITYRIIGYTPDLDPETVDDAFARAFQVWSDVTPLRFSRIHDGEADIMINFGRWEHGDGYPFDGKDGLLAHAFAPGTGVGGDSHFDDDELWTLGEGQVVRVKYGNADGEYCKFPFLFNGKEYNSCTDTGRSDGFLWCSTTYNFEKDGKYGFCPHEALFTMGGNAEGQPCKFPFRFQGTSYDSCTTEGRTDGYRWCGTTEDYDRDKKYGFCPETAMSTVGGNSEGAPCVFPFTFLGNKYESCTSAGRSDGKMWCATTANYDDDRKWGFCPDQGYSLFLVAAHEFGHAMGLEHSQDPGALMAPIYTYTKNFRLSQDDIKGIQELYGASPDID
Procedure: as §1
as §2, with “MMP-2” for “MMP-9”, “#BML-AK408)” for “#BML-AK410)”, “screen MMP-2” for “screen”, “inhibitors” for “inhibitors of matrix metalloproteinase-9”
as §3, §4, §5

[4] = molecular target: T4, MMP13 (Homo sapiens, UniProt P45452); assay: MMP-13 colorimetric inhibition assay (Enzo kit); conditions: colorimetric thiopeptide substrate, absorbance 415 nm; read-out: MMP13 IC50 class
T4 construct: purchased Enzo Life Sciences, Inc. BML-AK412
Procedure: as §1
as §2, with “MMP-13” for “MMP-9”, “#BML-AK412)” for “#BML-AK410)”, “metalloproteinase-13” for “metalloproteinase-9”
as §3, §4, §5

[5] = molecular target: T5, TACE (ADAM17) (Homo sapiens, UniProt P78536); assay: TACE fluorometric inhibition assay (Enzo kit); conditions: quenched fluorogenic peptide, ex/em 320 nm/420 nm; read-out: TACE IC50 class
T5 construct: purchased Enzo Life Sciences, Inc. BML-AK310
T5 sequence (P78536 223-474 limits assumed): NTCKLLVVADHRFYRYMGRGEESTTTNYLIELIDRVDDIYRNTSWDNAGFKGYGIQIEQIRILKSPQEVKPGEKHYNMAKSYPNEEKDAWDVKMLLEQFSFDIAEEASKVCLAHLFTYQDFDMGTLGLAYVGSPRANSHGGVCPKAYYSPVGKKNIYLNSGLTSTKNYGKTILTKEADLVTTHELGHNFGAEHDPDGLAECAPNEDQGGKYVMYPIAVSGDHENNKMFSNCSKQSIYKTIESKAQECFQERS
Procedure: as §1
The TACE Fluorometric Drug Discovery Kit (catalog #BML-AK310) is a complete assay system designed to screen ADAM17 (TACE) inhibitors using a quenched fluorogenic peptide: Mca-PLAQAV-Dpa-RSSSR-NH2. Mca fluorescence is quenched by the Dpa group until cleavage by proteases separates the two moieties leading to an increase in Mca fluorescence.
The inhibitory activity of the compounds of the invention against TACE was tested according to the manufacturer's assay protocol and the fluorescence was monitored at excitation/emission wavelengths=320 nm/420 nm using Tecan Infinite® 200 Pro F Nano^+ microplate reader.
as §4, §5

Structure (SMILES) | IC50 [1] [nM] | IC50 [2] [nM] | IC50 [3] [nM] | IC50 [4] [nM] | IC50 [5] [nM]
COCCOC(=O)N1CC2CCC(C(=O)NO)(C1)N2S(=O)(=O)c1ccc(Oc2ccc(F)cc2)c(F)c1 (stereo not drawn) [Example 5, 2-methoxyethyl 8-((3-fluoro-4-(4-fluorophenoxy)phenyl)sulfonyl)-1-(hydroxycarbamoyl)-3,8-diazabicyclo[3.2.1]octane-3-carboxylate] | < 50 | > 10000 | < 50 | < 50 | > 10000
COCCOC(=O)N1CC2CCC(C(=O)NO)(C1)N2S(=O)(=O)N1CCC(Oc2ccc(Cl)cc2)CC1 (stereo not drawn) [Example 19, 2-methoxyethyl 8-((4-(4-chlorophenoxy)piperidin-1-yl)sulfonyl)-1-(hydroxycarbamoyl)-3,8-diazabicyclo[3.2.1]octane-3-carboxylate] | < 50 | 1000 to 10000 | < 50 | < 50 | 1000 to 10000
COCCOC(=O)N1CC2CCC(C(=O)NO)(C1)N2S(=O)(=O)N1CCN(Cc2ccc(F)cc2)CC1 (stereo not drawn) [Example 22, 2-methoxyethyl 8-((4-(4-fluorobenzyl)piperazin-1-yl)sulfonyl)-1-(hydroxycarbamoyl)-3,8-diazabicyclo[3.2.1]octane-3-carboxylate] | 1000 to 10000 | > 10000 | 1000 to 10000 | 1000 to 10000 | > 10000
COCCOC(=O)N1CC2CCC(C(=O)NO)(C1)N2S(=O)(=O)N1CCC(Oc2ccc(F)cn2)CC1 (stereo not drawn) [Example 20, 2-methoxyethyl 8-((4-((5-fluoropyridin-2-yl)oxy)piperidin-1-yl)sulfonyl)-1-(hydroxycarbamoyl)-3,8-diazabicyclo[3.2.1]octane-3-carboxylate] | 50 to 1000 | > 10000 | 50 to 1000 | 50 to 1000 | > 10000
COCCOC(=O)N1CC2CCC(C(=O)NO)(C1)N2S(=O)(=O)N1CCC(Oc2ccncc2)CC1 (stereo not drawn) [Example 21, 2-methoxyethyl 1-(hydroxycarbamoyl)-8-((4-(pyridin-4-yloxy)piperidin-1-yl)sulfonyl)-3,8-diazabicyclo[3.2.1]octane-3-carboxylate] | 50 to 1000 | > 10000 | < 50 | 50 to 1000 | > 10000
COCCOC(=O)N1CC2CCC(C(=O)NO)(C1)N2S(=O)(=O)c1ccc(Oc2ccc(F)cc2)nc1 (stereo not drawn) [Example 13, 2-methoxyethyl 8-((6-(4-fluorophenoxy)pyridin-3-yl)sulfonyl)-1-(hydroxycarbamoyl)-3,8-diazabicyclo[3.2.1]octane-3-carboxylate] | < 50 | 1000 to 10000 | 50 to 1000 | 50 to 1000 | 1000 to 10000
